The record followed here is ChEMBL document CHEMBL1914389, “Steroidal C-21 mercapto derivatives as dissociated steroids: discovery of an inhaled dissociated steroid” (Bioorg Med Chem Lett, 2011).

Structures are written as SMILES.

The target of data set [1] is T1, Glucocorticoid receptor (Homo sapiens) (UniProt P04150).
T1 sequence (whole entry): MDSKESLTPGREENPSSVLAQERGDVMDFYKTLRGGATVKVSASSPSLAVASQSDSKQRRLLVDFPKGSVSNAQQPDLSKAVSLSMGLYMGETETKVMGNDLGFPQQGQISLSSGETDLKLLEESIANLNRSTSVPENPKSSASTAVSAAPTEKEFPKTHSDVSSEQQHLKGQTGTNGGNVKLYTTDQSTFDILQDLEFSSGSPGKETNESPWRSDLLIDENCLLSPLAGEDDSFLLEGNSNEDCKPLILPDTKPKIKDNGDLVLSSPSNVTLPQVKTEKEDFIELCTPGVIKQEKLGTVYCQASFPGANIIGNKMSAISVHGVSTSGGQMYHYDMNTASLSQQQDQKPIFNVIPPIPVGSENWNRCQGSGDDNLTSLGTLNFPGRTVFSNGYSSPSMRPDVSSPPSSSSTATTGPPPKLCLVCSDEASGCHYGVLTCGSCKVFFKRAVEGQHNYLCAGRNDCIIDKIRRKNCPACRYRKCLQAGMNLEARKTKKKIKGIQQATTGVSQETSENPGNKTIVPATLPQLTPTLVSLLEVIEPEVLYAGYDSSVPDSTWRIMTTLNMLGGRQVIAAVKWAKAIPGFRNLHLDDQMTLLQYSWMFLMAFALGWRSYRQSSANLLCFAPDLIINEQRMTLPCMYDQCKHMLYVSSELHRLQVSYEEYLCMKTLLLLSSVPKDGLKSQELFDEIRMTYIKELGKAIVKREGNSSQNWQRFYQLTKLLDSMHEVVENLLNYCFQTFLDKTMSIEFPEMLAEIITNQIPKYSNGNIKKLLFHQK
The data set is described as follows: Transactivation activity at glucocorticoid receptor in human HepG2 cells assessed as induction of tyrosine amino transferase at 1 uM relative to control. In kind it is cell-based.

The target in data set [2] is T2, Glucocorticoid receptor (Homo sapiens, UniProt P04150).
T2 sequence (P04150 whole entry): T1 sequence (whole entry)
The data set is described as follows: Transrepression activity at glucocorticoid receptor in human H292 cells assessed as inhibition of TNF-stimulated IL-6 cytokine synthesis. Format: cell-based.

For data set [3], the target named is T1, Glucocorticoid receptor (Homo sapiens). Briefly: Transrepression activity at glucocorticoid receptor in human H292 cells assessed as inhibition of TNF-stimulated IL-6 cytokine synthesis at 1 uM relative to control. In kind it is cell-based.
Data set [4] deals with T3, Glucocorticoid receptor (Rattus norvegicus) (UniProt P06536).
T3 sequence (whole entry): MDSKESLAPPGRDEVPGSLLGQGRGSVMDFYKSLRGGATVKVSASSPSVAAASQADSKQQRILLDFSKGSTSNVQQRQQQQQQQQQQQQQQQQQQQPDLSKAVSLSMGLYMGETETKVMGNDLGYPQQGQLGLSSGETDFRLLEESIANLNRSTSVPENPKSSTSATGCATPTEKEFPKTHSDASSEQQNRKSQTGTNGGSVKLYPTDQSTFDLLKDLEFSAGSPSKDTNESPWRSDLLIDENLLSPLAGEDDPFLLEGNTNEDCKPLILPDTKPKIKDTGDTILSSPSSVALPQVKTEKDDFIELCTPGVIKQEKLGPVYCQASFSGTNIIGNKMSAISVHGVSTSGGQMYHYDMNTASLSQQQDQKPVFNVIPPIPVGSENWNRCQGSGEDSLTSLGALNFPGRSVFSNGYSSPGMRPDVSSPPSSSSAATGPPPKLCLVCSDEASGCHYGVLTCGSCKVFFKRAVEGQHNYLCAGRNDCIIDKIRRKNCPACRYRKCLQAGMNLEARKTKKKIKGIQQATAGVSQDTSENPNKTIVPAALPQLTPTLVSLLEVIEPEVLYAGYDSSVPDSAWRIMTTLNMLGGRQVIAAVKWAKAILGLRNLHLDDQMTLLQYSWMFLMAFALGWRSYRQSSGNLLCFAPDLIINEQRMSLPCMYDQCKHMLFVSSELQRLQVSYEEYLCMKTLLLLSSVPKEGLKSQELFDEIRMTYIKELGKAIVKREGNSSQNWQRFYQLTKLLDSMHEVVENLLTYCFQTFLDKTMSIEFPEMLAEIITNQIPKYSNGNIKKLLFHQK
Briefly: Transactivation activity at glucocorticoid receptor in rat H4II-E cells assessed as induction of tyrosine amino transferase at 1 uM relative to control. Format: cell-based.

A short description of data set [5]: Therapeutic index, ratio of ED20 for thymolysis to ED70 for forced vital capacity in ovalbumin-challenged Brown-Norway rat. To be noted: in vivo, read-out: TI. Format: organism-based.
For data set [6], the target named is T2, Glucocorticoid receptor. Briefly: Inhibition of human glucocorticoid receptor.
In data set [7] the target is T1, Glucocorticoid receptor (Homo sapiens). Briefly: Transactivation activity at glucocorticoid receptor in human HepG2 cells expressing luciferase-taggged GRE gene at 1 uM by luciferase reporter gene assay relative to control. Format: cell-based. A general note: In a reporter assay the amount or activity of a reporter protein is the signal.
In data set [8] the target is T2, Glucocorticoid receptor. The data set is described as follows: Transactivation activity at glucocorticoid receptor in human HepG2 cells expressing luciferase-taggged GRE gene by luciferase reporter gene assay. Format: cell-based.
The target in data set [9] is T4, Glucocorticoid receptor (Rattus norvegicus, UniProt P06536).
T4 sequence (P06536 whole entry): T3 sequence (whole entry)
Briefly: Transactivation activity at glucocorticoid receptor in rat H4II-E cells assessed as induction of tyrosine amino transferase. Format: cell-based.

Data set [10] has as its target T2, Glucocorticoid receptor. The data set is described as follows: Transactivation activity at glucocorticoid receptor in human HepG2 cells assessed as induction of tyrosine amino transferase. Format: cell-based.

In general, Emax refers to the greatest response seen or fitted, relative to the assay's reference. Usually IC50 stands for the concentration that gives 50% inhibition. Take `C[C@]12CCC(=O)C=C1CC[C@@H]1[C@@H]2[C@@H](O)C[C@@]2(C)[C@H]1CC[C@]2(OC(=O)c1ccco1)C(=O)CSc1ccc2ccccc2n1`: the Emax amounted to 22% in data set [1], 96% in data set [3] and 11% in data set [4]. Besides, on Glucocorticoid receptor [2], the half-inhibitory concentration (IC50) turned out to be 0.00285 µM.
On to `CCC(=O)OCC(=O)[C@@]1(OC(=O)CC)[C@@H](C)C[C@H]2[C@@H]3CCC4=CC(=O)C=C[C@]4(C)[C@@]3(Cl)[C@@H](O)C[C@@]21C` [BECLOMETHASONE DIPROPIONATE], for which, in data set [5], the selectivity ratio came to 1.
Turning to `Cn1c(SCC(=O)[C@@]2(OC(=O)c3ccco3)CC[C@H]3[C@@H]4CCC5=CC(=O)CC[C@]5(C)[C@H]4[C@@H](O)C[C@@]32C)nc2ccccc21`, the results for the Emax in data set [1], in data set [3] and in data set [4] were 39%, 98% and 17%, respectively. Further, the IC50 on Glucocorticoid receptor [2] is 0.0037 µM.
The corresponding values for `C[C@]12CCC(=O)C=C1CC[C@@H]1[C@@H]2[C@@H](O)C[C@@]2(C)[C@H]1CC[C@]2(OC(=O)c1ccco1)C(=O)CSc1nccc2ccccc12` are 33%, 86%, 4% and 0.0159 µM.
The EC50 is the concentration that produces a half-maximal response. On to `C[C@]12CCC(=O)C=C1CC[C@H]1[C@@H]3CC[C@](O)(C(=O)CSc4nc5ccccc5s4)[C@@]3(C)C[C@H](O)[C@@]12F`, for which the results for the IC50 at Glucocorticoid receptor [2] and on Glucocorticoid receptor [6] were 0.0188 µM and 0.0046 µM, respectively. Further, the Emax in data set [7] turned out to be 63%; in [3], 95%; in data set [4] it was 21%. For the same compound, it took 0.535 µM to reach a half-maximal effect on Glucocorticoid receptor [8] (EC50).
In the case of `C[C@H]1C[C@@H]2[C@H]([C@@H](O)C[C@@]3(C)[C@H]2CC[C@]3(O)C(=O)CSc2nc3ccccc3s2)[C@@]2(C)C=CC(=O)C=C12`, the IC50 at Glucocorticoid receptor [2] amounted to 0.0391 µM; against Glucocorticoid receptor [6] it was 0.018 µM. Besides, the Emax in data set [7] was 55%; in data set [3] it was 95%; in [4] it was 34%. In addition, at Glucocorticoid receptor [8], the EC50 was found to be 0.295 µM.
As for `C[C@@H]1C[C@H]2[C@@H]3CCC4=CC(=O)C=C[C@]4(C)[C@@]3(F)[C@@H](O)C[C@]2(C)[C@@]1(O)C(=O)CSc1nc2ccccc2s1`, the IC50 at Glucocorticoid receptor [2] was found to be 0.0044 µM; at Glucocorticoid receptor [6], 0.018 µM. For the same compound, the maximal effect (Emax) in data set [7] came out at 68%; in data set [3], 98%; in data set [4], 33%. Also, the EC50 at Glucocorticoid receptor [8] is 0.0455 µM.
Consider `C[C@@H]1C[C@H]2[C@@H]3CCC4=CC(=O)C=C[C@]4(C)[C@@]3(Cl)[C@@H](O)C[C@]2(C)[C@@]1(O)C(=O)CSc1nc2ccccc2s1`, for which the values for the concentration for half-maximal inhibition (IC50) at Glucocorticoid receptor [2] and on Glucocorticoid receptor [6] were 0.00495 µM and 0.017 µM, respectively. Besides, the Emax in [7] was 60%; in [3], 88%; in data set [4] it was 29%. The compound further showed an EC50 on Glucocorticoid receptor [8] of 0.05 µM.
On to `C[C@]12C=CC(=O)C=C1CC[C@@H]1[C@@H]2[C@@H](O)C[C@@]2(C)[C@H]1CC[C@]2(O)C(=O)CSc1nc2ccccc2s1`, for which the figures for the IC50 at Glucocorticoid receptor [2] and against Glucocorticoid receptor [6] were 0.035 µM and 0.0038 µM, respectively. For the same compound, the maximal response (Emax) was found to be 29% in data set [7], 78% in data set [3] and 19% in [4].
For the compound `C[C@]12CCC(=O)C=C1CC[C@@H]1[C@@H]2[C@@H](O)C[C@@]2(C)[C@H]1CC[C@]2(OC(=O)c1ccco1)C(=O)CSc1ncccn1`, the Emax stood at 35% in data set [1], 94% in data set [3] and 7% in data set [4]. The IC50 on Glucocorticoid receptor [2] amounted to 0.0097 µM.
As for `C[C@]12C=CC(=O)C=C1CC[C@@H]1[C@@H]2[C@@H](O)C[C@@]2(C)[C@H]1CC[C@]2(OC(=O)c1ccco1)C(=O)CSc1nc2ccccc2s1`, the Emax in data set [1] came to 43%; in [7], 93%; in data set [3], 99%; in data set [4] it was 62%. Further, the half-maximal inhibitory concentration (IC50) on Glucocorticoid receptor [2] is 0.00075 µM. The values for the EC50 at Glucocorticoid receptor [9], at Glucocorticoid receptor [8] and on Glucocorticoid receptor [10] were 0.0187 µM, 0.0141 µM and 0.0508 µM, respectively.
Take `C[C@]12C=CC(=O)C=C1CC[C@@H]1[C@@H]2[C@@H](O)C[C@@]2(C)[C@H]1CC[C@]2(OC(=O)c1ccco1)C(=O)CSc1nccc2ccccc12`: the Emax in data set [1] is 24%; in data set [7], 73%; in [3], 96%; in [4], 32%. For the same compound, at Glucocorticoid receptor [2], the IC50 stood at 0.0021 µM. At Glucocorticoid receptor [8], this compound returned an EC50 of 0.0173 µM.
Consider `C[C@]12CCC(=O)C=C1CC[C@@H]1[C@@H]2[C@@H](O)C[C@@]2(C)[C@H]1CC[C@]2(OC(=O)c1ccco1)C(=O)CSc1nc2ccccc2o1`, for which the results for the Emax in [1], in data set [3] and in [4] were 53%, 97% and 9%, respectively. Besides, on Glucocorticoid receptor [2], the IC50 is 0.0022 µM. Besides, the EC50 on Glucocorticoid receptor [10] was 0.0556 µM.
Take `Cc1nc(SCC(=O)[C@@]2(OC(=O)c3ccco3)CC[C@H]3[C@@H]4CCC5=CC(=O)CC[C@]5(C)[C@H]4[C@@H](O)C[C@@]32C)sc1C`: the Emax in data set [1] amounted to 57%; in data set [3] it was 100%; in data set [4] it was 12%. Further, at Glucocorticoid receptor [2], the IC50 was 0.0009 µM. The EC50 at Glucocorticoid receptor [10] was 0.0224 µM.
With `Cc1ccnc(SCC(=O)[C@@]2(OC(=O)c3ccco3)CC[C@H]3[C@@H]4CCC5=CC(=O)C=C[C@]5(C)[C@H]4[C@@H](O)C[C@@]32C)n1`, the Emax is 43% in data set [1], 97% in [7], 98% in data set [3] and 24% in data set [4]. For the same compound, the IC50 at Glucocorticoid receptor [2] turned out to be 0.0021 µM. Besides, the EC50 on Glucocorticoid receptor [8] was determined as 0.0133 µM.
For `C[C@]12CCC(=O)C=C1CC[C@@H]1[C@@H]2[C@@H](O)C[C@@]2(C)[C@H]1CC[C@]2(OC(=O)c1ccco1)C(=O)CSc1cnc2ccccc2n1`, the results for the Emax in data set [1], in data set [3] and in data set [4] were 41%, 98% and 9%, respectively. The IC50 on Glucocorticoid receptor [2] is 0.0014 µM.
Regarding `C[C@@H]1C[C@H]2[C@@H]3C[C@H](F)C4=CC(=O)C=C[C@]4(C)[C@@]3(F)[C@@H](O)C[C@]2(C)[C@@]1(O)C(=O)CSc1nc2ccccc2s1`, the figures for the IC50 at Glucocorticoid receptor [2] and at Glucocorticoid receptor [6] were 0.0019 µM and 0.013 µM, respectively. The EC50 on Glucocorticoid receptor [9] came out at 0.027 µM; on Glucocorticoid receptor [8], 0.017 µM. In addition, the maximum response (Emax) was determined as 66% in [7], 100% in data set [3] and 79% in data set [4].
Take `C[C@]12CCC(=O)C=C1CC[C@@H]1[C@@H]2[C@@H](O)C[C@@]2(C)[C@H]1CC[C@]2(OC(=O)c1ccco1)C(=O)CSc1nc2ncccc2s1`: the maximal response (Emax) in data set [1] came to 15%; in data set [3] it was 94%; in data set [4], 2%. The IC50 at Glucocorticoid receptor [2] worked out at 0.0143 µM.
As to `CCCC1O[C@@H]2C[C@H]3[C@@H]4CCC5=CC(=O)C=C[C@]5(C)[C@H]4[C@@H](O)C[C@]3(C)[C@]2(C(=O)CO)O1` (some centres not stated) [BUDESONIDE], the selectivity ratio in [5] worked out at 1.
